Measurements as given in patent US20240424111A1, “Degrader Compounds and Uses Thereof” (CALICO LIFE SCIENCES LLC, priority 2021, published 2024).

Assays:
PTPN2 [1] = target: T1, PTPN2 (Mus musculus, UniProt Q06180); assay: HiBiT PTPN2 degradation in B16F10.4 cells, 24 hours; type: cell-based
T1 construct: HiBiT; host or cells: B16F10.4
T1 sequence (Q06180 1-406): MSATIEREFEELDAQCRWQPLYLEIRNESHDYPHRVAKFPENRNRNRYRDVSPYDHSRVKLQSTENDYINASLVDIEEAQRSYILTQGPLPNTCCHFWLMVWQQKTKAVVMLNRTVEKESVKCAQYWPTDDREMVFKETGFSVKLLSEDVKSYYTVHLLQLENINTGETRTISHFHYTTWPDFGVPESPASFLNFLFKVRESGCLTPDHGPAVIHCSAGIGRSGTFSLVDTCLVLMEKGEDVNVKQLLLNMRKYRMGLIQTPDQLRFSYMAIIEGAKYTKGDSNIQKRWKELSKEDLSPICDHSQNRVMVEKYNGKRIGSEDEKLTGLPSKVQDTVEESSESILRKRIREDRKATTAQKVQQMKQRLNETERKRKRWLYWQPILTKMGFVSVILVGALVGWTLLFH
Method: (§1) PTPN2 degradation was determined based on quantification of luminescent signal using Nano-Glo® HiBiT Lytic Assay kit. Test compounds were added to the 384-well plate from a top concentration of 10 μM with 11 points, half log titration in duplicates. 293T. 109 cells were added into 384-well plates at a cell density of 5000 cells per well. The plates were kept at 37° C. with 5% CO2 for 24 hours. The cells treated in the absence of the test compound were the negative control and the cells without Nano-Glo® HiBiT Lytic reagent were the positive control. After 24-hour incubation, Nano-Glo® HiBiT Lytic Assay reagents were added to the cells. Luminescence was acquired on EnVision™ Multilabel Reader (PerkinElmer, Santa Clara, CA, USA).

PTPN2 [2] = target: T2, PTPN2 (Homo sapiens, UniProt P17706); assay: HiBiT PTPN2 degradation in 293T.109 (HiBiT-PTPN2) cells, 24 hours; type: cell-based; details: 293T.109 cells
T2 construct: expressed in transfected cells; host or cells: 293T.109 (HiBiT-PTPN2), derived from 293T WT (ATCC)
T2 sequence (P17706 1-415): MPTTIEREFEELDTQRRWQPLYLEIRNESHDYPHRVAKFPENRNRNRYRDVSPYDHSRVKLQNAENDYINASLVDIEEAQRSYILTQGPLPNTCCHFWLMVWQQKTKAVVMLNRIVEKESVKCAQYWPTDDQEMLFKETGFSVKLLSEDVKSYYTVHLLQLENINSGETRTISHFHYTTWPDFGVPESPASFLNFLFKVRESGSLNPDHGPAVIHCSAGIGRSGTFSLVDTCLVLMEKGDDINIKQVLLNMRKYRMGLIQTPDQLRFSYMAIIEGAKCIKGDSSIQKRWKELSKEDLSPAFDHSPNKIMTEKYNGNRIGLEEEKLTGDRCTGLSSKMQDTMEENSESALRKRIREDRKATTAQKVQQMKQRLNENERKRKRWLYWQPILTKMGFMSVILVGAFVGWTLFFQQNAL
From the text: Dulbecco's modified Eagle medium (DMEM) without phenol red and fetal bovine serum (FBS) were purchased from Gibco (Grand Island, NY, USA). Nano-Glo® HiBiT Lytic Assay System was purchased from Promega (Medison, WI, USA). 293T. 109 (HiBiT-PTPN2) cell line was generated by ectopically expressing PTPN2 with N-terminal HiBiT fusion tag in 293T WT cell line purchased from ATCC (Manassas, VA, USA). Cell culture flasks and 384-well microplates were acquired from VWR (Radnor, PA, USA).
PTPN2 Degradation Analysis
as §1

Row | DC50 (PTPN2 [1]) [nM] | DC50 (PTPN2 [2]) [nM] | Compound
1 | ≥ 500 | 150 to 500 | Cn1c(=O)n(C2CCC(=O)NC2=O)c2ccc(-c3cccc(CC(=O)Nc4ccc5c(F)c(N6CC(=O)NS6(=O)=O)c(O)cc5c4)c3)cc21 (centres unmarked) [Degrader 77]
2 | ≥ 500 | 150 to 500 | Cn1c(=O)n(C2CCC(=O)NC2=O)c2ccc(C3CCN(C/C=C/c4ccc5c(F)c(N6CC(=O)NS6(=O)=O)c(O)cc5c4)CC3)cc21 (centres unmarked) [Degrader 78]
3 | 50 to 150 | 50 to 150 | Cc1cc(-c2ccc3c(c2)n(C)c(=O)n3C2CCC(=O)NC2=O)ccc1CC(=O)Nc1ccc2c(F)c(N3CC(=O)NS3(=O)=O)c(O)cc2c1 (centres unmarked) [Degrader 79]
4 | 150 to 500 | < 50 | Cn1c(=O)n(C2CCC(=O)NC2=O)c2ccc(-c3cccc(CCC(=O)Nc4ccc5c(F)c(N6CC(=O)NS6(=O)=O)c(O)cc5c4)c3)cc21 (centres unmarked) [Degrader 80]
5 | 50 to 150 | 50 to 150 | Cc1cc(CC(=O)Nc2ccc3c(F)c(N4CC(=O)NS4(=O)=O)c(O)cc3c2)ccc1Oc1ccc2c(c1)n(C)c(=O)n2C1CCC(=O)NC1=O (centres unmarked) [Degrader 81]
6 | 150 to 500 | 150 to 500 | Cn1cc(C(=O)Nc2ccc3c(F)c(N4CC(=O)NS4(=O)=O)c(O)cc3c2)c2ccc(-c3ccc4c(c3)n(C)c(=O)n4C3CCC(=O)NC3=O)cc21 (centres unmarked) [Degrader 82]
7 | < 50 | < 50 | Cn1c(=O)n(C2CCC(=O)NC2=O)c2ccc(-c3cc4cnn(CC(=O)Nc5ccc6c(F)c(N7CC(=O)NS7(=O)=O)c(O)cc6c5)c4cc3F)cc21 (centres unmarked) [Degrader 83]
8 | 150 to 500 | 50 to 150 | Cn1c(=O)n(C2CCC(=O)NC2=O)c2ccc(N3CCC4(CC3)CN(CC(=O)Nc3ccc5c(F)c(N6CC(=O)NS6(=O)=O)c(O)cc5c3)C4)cc21 (centres unmarked) [Degrader 84]
9 | 150 to 500 | 150 to 500 | Cc1nn(C2CCC(=O)NC2=O)c2ccc(-c3ccc(CC(=O)Nc4ccc5c(F)c(N6CC(=O)NS6(=O)=O)c(O)cc5c4)cc3)cc12 (centres unmarked) [Degrader 85]
10 | ≥ 500 | ≥ 500 | O=C1CCC(n2c3ccc(CCCCNC(=O)Nc4ccc5c(F)c(N6CC(=O)NS6(=O)=O)c(O)cc5c4)cc3c3cccnc32)C(=O)N1 (centres unmarked) [Degrader 86]
11 | 50 to 150 | 50 to 150 | Cc1cc(CC(=O)Nc2ccc3c(F)c(N4CC(=O)NS4(=O)=O)c(O)cc3c2)ccc1N(C)c1ccc2c(c1)n(C)c(=O)n2C1CCC(=O)NC1=O (centres unmarked) [Degrader 87]
12 | ≥ 500 | 150 to 500 | Cn1c(=O)n(C2CCC(=O)NC2=O)c2ccc(-n3ccc(CC(=O)Nc4ccc5c(F)c(N6CC(=O)NS6(=O)=O)c(O)cc5c4)n3)cc21 (centres unmarked) [Degrader 88]
13 | 50 to 150 | 50 to 150 | Cn1c(=O)n(C2CCC(=O)NC2=O)c2ccc(N3CCC(CNC(=O)Nc4ccc5c(F)c(N6CC(=O)NS6(=O)=O)c(O)cc5c4)CC3)cc21 (centres unmarked) [Degrader 89]
14 | 50 to 150 | 150 to 500 | C[C@H]1CN(c2ccc3c(c2)n(C)c(=O)n3C2CCC(=O)NC2=O)CCN1CC(=O)Nc1ccc2c(F)c(N3CC(=O)NS3(=O)=O)c(O)cc2c1 (some centres unmarked) [Degrader 90]
15 | 150 to 500 | 50 to 150 | C[C@@H]1CN(c2ccc3c(c2)n(C)c(=O)n3C2CCC(=O)NC2=O)CCN1CC(=O)Nc1ccc2c(F)c(N3CC(=O)NS3(=O)=O)c(O)cc2c1 (some centres unmarked) [Degrader 91]
16 | ≥ 500 | 150 to 500 | Cn1c(=O)n(C2CCC(=O)NC2=O)c2ccc(N3CC4(CCN(CC(=O)Nc5ccc6c(F)c(N7CC(=O)NS7(=O)=O)c(O)cc6c5)CC4)C3)cc21 (centres unmarked) [Degrader 92]
17 | 50 to 150 | 50 to 150 | Cn1c(=O)n(C2CCC(=O)NC2=O)c2ccc(N3CCN(CNC(=O)Nc4ccc5c(F)c(N6CC(=O)NS6(=O)=O)c(O)cc5c4)CC3)cc21 (centres unmarked) [Degrader 93]

Row | DC50 (PTPN2 [1]) [nM] | DC50 (PTPN2 [2]) [nM] | Compound
18 | 50 to 150 | 150 to 500 | Cc1cc(C(C)C(=O)Nc2ccc3c(F)c(N4CC(=O)NS4(=O)=O)c(O)cc3c2)ccc1Nc1ccc2c(c1)n(C)c(=O)n2C1CCC(=O)NC1=O (centres unmarked) [Degrader 94]
19 | < 50 | < 50 | Cc1nn(CC(=O)Nc2ccc3c(F)c(N4CC(=O)NS4(=O)=O)c(O)cc3c2)c2ccc(-c3ccc4c(c3)n(C)c(=O)n4C3CCC(=O)NC3=O)cc12 (centres unmarked) [Degrader 95]
20 | 150 to 500 | 50 to 150 | Cn1c(=O)n(C2CCC(=O)NC2=O)c2ccc(N3CC4(CC(OCC(=O)Nc5ccc6c(F)c(N7CC(=O)NS7(=O)=O)c(O)cc6c5)C4)C3)cc21 (centres unmarked) [Degrader 96]
21 | 150 to 500 | 50 to 150 | Cn1c(=O)n(C2CCC(=O)NC2=O)c2ccc(N3CCCC(CC(=O)Nc4ccc5c(F)c(N6CC(=O)NS6(=O)=O)c(O)cc5c4)CC3)cc21 (centres unmarked) [Degrader 97]
22 | 50 to 150 | < 50 | COC1(CC(=O)Nc2ccc3c(F)c(N4CC(=O)NS4(=O)=O)c(O)cc3c2)CCN(c2ccc3c(c2)n(C)c(=O)n3C2CCC(=O)NC2=O)CC1 (centres unmarked) [Degrader 99]
23 | 150 to 500 | < 50 | Cc1nn(C2CCC(=O)NC2=O)c2ccc(C3CCN(CC(=O)Nc4ccc5c(F)c(N6CC(=O)NS6(=O)=O)c(O)cc5c4)CC3)cc12 (centres unmarked) [Degrader 100]
24 | ≥ 500 | ≥ 500 | Cc1nn(C2CCC(=O)NC2=O)c2ccc(N3CCC(CC(=O)Nc4ccc5c(F)c(N6CC(=O)NS6(=O)=O)c(O)cc5c4)CC3)cc12 (centres unmarked) [Degrader 101]
25 | 50 to 150 | 50 to 150 | Cn1c(=O)n(C2CCC(=O)NC2=O)c2ccc(C3CCN(C4CC(C(=O)Nc5ccc6cc(N7CC(=O)NS7(=O)=O)ccc6c5)C4)CC3(F)F)cc21 (centres unmarked) [Degrader 102]
26 | ≥ 500 | < 50 | C[C@H](C(=O)Nc1ccc2c(F)c(N3CC(=O)NS3(=O)=O)c(O)cc2c1)N1CCC(c2ccc3c(c2)n(C)c(=O)n3C2CCC(=O)NC2=O)CC1 (some centres unmarked) [Degrader 103]
27 | 150 to 500 | 150 to 500 | C[C@H](C(=O)Nc1ccc2c(F)c(N3CC(=O)NS3(=O)=O)c(O)cc2c1)C1CCN(c2ccc3c(c2)n(C)c(=O)n3C2CCC(=O)NC2=O)CC1 (some centres unmarked) [Degrader 105]
28 | 150 to 500 | 150 to 500 | C[C@@H](C(=O)Nc1ccc2c(F)c(N3CC(=O)NS3(=O)=O)c(O)cc2c1)C1CCN(c2ccc3c(c2)n(C)c(=O)n3C2CCC(=O)NC2=O)CC1 (some centres unmarked) [Degrader 106]
29 | 50 to 150 | 50 to 150 | Cn1c(=O)n(C2CCC(=O)NC2=O)c2ccc(Nc3ccn(CC(=O)Nc4ccc5c(F)c(N6CC(=O)NS6(=O)=O)c(O)cc5c4)n3)cc21 (centres unmarked) [Degrader 107]
30 | 50 to 150 | 50 to 150 | Cn1c(=O)n(C2CCC(=O)NC2=O)c2ccc(-c3ccc(NCC4CC4C(=O)Nc4ccc5c(F)c(N6CC(=O)NS6(=O)=O)c(O)cc5c4)cc3)cc21 (centres unmarked) [Degrader 108]
31 | 150 to 500 | 150 to 500 | Cn1c(=O)n(C2CCC(=O)NC2=O)c2ccc(N3[C@@H]4CC[C@H]3C[C@@H](CC(=O)Nc3ccc5c(F)c(N6CC(=O)NS6(=O)=O)c(O)cc5c3)C4)cc21 (some centres unmarked) [Degrader 109]
32 | 150 to 500 | 50 to 150 | Cn1c(=O)n(C2CCC(=O)NC2=O)c2ccc(N3[C@@H]4CC[C@H]3C[C@H](CC(=O)Nc3ccc5c(F)c(N6CC(=O)NS6(=O)=O)c(O)cc5c3)C4)cc21 (some centres unmarked) [Degrader 110]
33 | 50 to 150 | < 50 | Cn1c(=O)n(C2CCC(=O)NC2=O)c2ccc([C@@H]3CCN(CC(=O)Nc4ccc5c(F)c(N6CC(=O)NS6(=O)=O)c(O)cc5c4)C[C@H]3O)cc21 (some centres unmarked) [Degrader 111]
34 | 50 to 150 | < 50 | Cn1c(=O)n(C2CCC(=O)NC2=O)c2ccc([C@H]3CCN(CC(=O)Nc4ccc5c(F)c(N6CC(=O)NS6(=O)=O)c(O)cc5c4)C[C@@H]3O)cc21 (some centres unmarked) [Degrader 112]
